Data from ChEMBL document CHEMBL4020822, “Identification of N-{cis-3-[Methyl(7H-pyrrolo[2,3-d]pyrimidin-4-yl)amino]cyclobutyl}propane-1-sulfonamide (PF-04965842): A Selective JAK1 Clinical Candidate for the Treatment of Autoimmune Diseases” (J Med Chem, 2018).
Values after ≈ are worked out from the molar mass of the structure shown.

Columns and labels:
[1] = physchem; conditions: octanol/water phosphate buffer, pH 7.4
[2] = Aqueous solubility of the compound at pH 7.4; type: physicochemical
[3] = Oral bioavailability in rat at 3 mg/kg; type: ADME, organism-based; conditions: in vivo
[4] = Volume of distribution at steady state in rat at 1 mg/kg, iv or 3 mg/kg, po; type: ADME, organism-based; conditions: in vivo, read-out: Vdss
[5] = Apparent permeability in RRCK cells from apical to basolateral side; type: ADME, cell-based, Canis lupus familiaris, MDCKII-LE; conditions: dog, MDCK
[6] = Tmax in freund's adjuvant-induced Lewis rat arthritis model blood at 15 mg/kg, po qd administered via oral gavage measured on day 7; type: ADME, organism-based

SMILES	logD [1]	other results
CN(c1ncnc2[nH]ccc12)[C@H]1C[C@@H](NS(=O)(=O)CCC(F)(F)F)C1	2.4	–
C[C@@H]1CCN(C(=O)CC#N)C[C@@H]1N(C)c1ncnc2[nH]ccc12 [TOFACITINIB]	1.1	–
CN(c1ncnc2[nH]ccc12)[C@H]1C[C@@H](NS(=O)(=O)c2ccc(F)cc2)C1	2.8	–
CCS(=O)(=O)N1CC(CC#N)(n2cc(-c3ncnc4[nH]ccc34)cn2)C1 [BARICITINIB]	1.2	–
CN(c1ncnc2[nH]ccc12)[C@H]1C[C@@H](NS(=O)(=O)CCCC(F)(F)F)C1	2.4	–
CN(c1ncnc2[nH]ccc12)[C@H]1C[C@@H](CS(=O)(=O)N2CCCC2)C1	2.1	–
CN(c1ncnc2[nH]ccc12)[C@H]1C[C@@H](NS(=O)(=O)CC2COC2)C1	1	solubility [2]: 437 µM (≈ 154 µg/mL); bioavailability [3]: 48.3%; Vd [4]: 1.99 L/kg; Papp A→B [5]: 30 nm/s
CN(c1ncnc2[nH]ccc12)[C@H]1C[C@@H](NS(=O)(=O)CC(F)(F)F)C1	1.9	–
CN(c1ncnc2[nH]ccc12)[C@H]1C[C@@H](CS(=O)(=O)C2CC2)C1	1.6	–
CCNS(=O)(=O)N[C@H]1C[C@@H](N(C)c2ncnc3[nH]ccc23)C1	1.6	–
CCN(C)S(=O)(=O)N[C@H]1C[C@@H](N(C)c2ncnc3[nH]ccc23)C1	2.1	–
CCS(=O)(=O)C[C@H]1C[C@@H](N(C)c2ncnc3[nH]ccc23)C1	1.2	–
CN(c1ncnc2[nH]ccc12)[C@H]1C[C@@H](NS(C)(=O)=O)C1	1.2	–
COCCCS(=O)(=O)N[C@H]1C[C@@H](N(C)c2ncnc3[nH]ccc23)C1	1.5	–
CN(c1ncnc2[nH]ccc12)[C@H]1C[C@@H](NS(=O)(=O)c2ccccc2)C1	2.8	–
CN(c1ncnc2[nH]ccc12)[C@H]1C[C@@H](NS(=O)(=O)NCCCC#N)C1	1.2	–
CN(c1ncnc2[nH]ccc12)[C@H]1C[C@@H](NS(=O)(=O)C2CC2)C1	1.6	–
CCNS(=O)(=O)C[C@H]1C[C@@H](N(C)c2ncnc3[nH]ccc23)C1	1.5	–
CN(c1ncnc2[nH]ccc12)[C@H]1C[C@@H](NS(=O)(=O)Cc2ccccc2)C1	2.6	–
CN(c1ncnc2[nH]ccc12)[C@H]1C[C@@H](NS(=O)(=O)CCCC#N)C1	–	solubility [2]: 259 µM (≈ 90.2 µg/mL); bioavailability [3]: 61.1%; Vd [4]: 1.42 L/kg; Papp A→B [5]: 40 nm/s
CCCNS(=O)(=O)C[C@H]1C[C@@H](N(C)c2ncnc3[nH]ccc23)C1	2.1	–
CN(c1ncnc2[nH]ccc12)[C@H]1C[C@@H](CS(=O)(=O)c2ccccc2)C1	2.7	–
CCCS(=O)(=O)C[C@H]1C[C@@H](N(C)c2ncnc3[nH]ccc23)C1	1.7	–
CCCCN(C)S(=O)(=O)C[C@H]1C[C@@H](N(C)c2ncnc3[nH]ccc23)C1	3	–
CN(c1ncnc2[nH]ccc12)[C@H]1C[C@@H](NS(=O)(=O)N2CCCCC2)C1	2.7	–
CCCNS(=O)(=O)N[C@H]1C[C@@H](N(C)c2ncnc3[nH]ccc23)C1	2	–
CCCCNS(=O)(=O)C[C@H]1C[C@@H](N(C)c2ncnc3[nH]ccc23)C1	2.6	–
CN(CC1CC1)S(=O)(=O)C[C@H]1C[C@@H](N(C)c2ncnc3[nH]ccc23)C1	2.7	–
CCS(=O)(=O)N[C@H]1C[C@@H](N(C)c2ncnc3[nH]ccc23)C1	1.4	–

Continued, in another order:

logD [1]	SMILES	other results
2.2	CN(c1ncnc2[nH]ccc12)[C@H]1C[C@@H](CS(=O)(=O)NCC2CC2)C1	–
2.4	CC(C)CS(=O)(=O)N[C@H]1C[C@@H](N(C)c2ncnc3[nH]ccc23)C1	–
1.6	CN(c1ncnc2[nH]ccc12)[C@H]1C[C@@H](NS(=O)(=O)NC2CC2)C1	–
1.9	CCCS(=O)(=O)N[C@H]1C[C@@H](N(C)c2ncnc3[nH]ccc23)C1 [ABROCITINIB]	solubility [2]: 503 µM (≈ 163 µg/mL); bioavailability [3]: 95.6%; Tmax [6]: 15 min; Vd [4]: 1.04 L/kg; Papp A→B [5]: 160 nm/s
2.1	CN(c1ncnc2[nH]ccc12)[C@H]1C[C@@H](NS(=O)(=O)NCC2CC2)C1	–
1.2	COCCS(=O)(=O)N[C@H]1C[C@@H](N(C)c2ncnc3[nH]ccc23)C1	–
2.7	N#CC[C@H](C1CCCC1)n1cc(-c2ncnc3[nH]ccc23)cn1 [RUXOLITINIB]	–
2.4	CN(c1ncnc2[nH]ccc12)[C@H]1C[C@@H](NS(=O)(=O)CC2CCC2)C1	–
2.2	CN(C1CC1)S(=O)(=O)N[C@H]1C[C@@H](N(C)c2ncnc3[nH]ccc23)C1	–
2.2	CCCCS(=O)(=O)C[C@H]1C[C@@H](N(C)c2ncnc3[nH]ccc23)C1	solubility [2]: 213 µM (≈ 71.7 µg/mL); bioavailability [3]: 119%; Vd [4]: 0.74 L/kg; Papp A→B [5]: 230 nm/s
2.4	CCCCS(=O)(=O)N[C@H]1C[C@@H](N(C)c2ncnc3[nH]ccc23)C1	–
1.8	CN(c1ncnc2[nH]ccc12)[C@H]1C[C@@H](NS(=O)(=O)CC2CC2)C1	–
1.3	CN(CCC#N)S(=O)(=O)N[C@H]1C[C@@H](N(C)c2ncnc3[nH]ccc23)C1	–
2	CCCS(=O)(=O)N[C@H]1C[C@H](N(C)c2ncnc3[nH]ccc23)C1	–
